Test results reported in the kinase profiling compilation of Christmann-Franck et al. (2016).

Assays:
Test in all cases: radiometric filter-binding kinase assay, Kinase HotSpot
Conditions in all cases: compound 0.5 µM; ATP 10 µM
[1] = target: PRKX (human) (UniProt P51817)
[2] = target: PHKG2 (human) (UniProt P15735)
[3] = target: PRKCZ (human) (UniProt Q05513)
[4] = target: EPHB3 (human) (UniProt P54753)
[5] = target: PRKD3 (human) (UniProt O94806)
[6] = target: CAMK4 (human) (UniProt Q16566)
[7] = target: MARK4 (human) (UniProt Q96L34)
[8] = target: FGFR2 (human) (UniProt P21802)
[9] = target: AKT2 (human) (UniProt P31751)
[10] = target: ACVR1 (human) (UniProt Q04771)
Sequence of ACVR1 (human) (Q04771 whole entry, looked up): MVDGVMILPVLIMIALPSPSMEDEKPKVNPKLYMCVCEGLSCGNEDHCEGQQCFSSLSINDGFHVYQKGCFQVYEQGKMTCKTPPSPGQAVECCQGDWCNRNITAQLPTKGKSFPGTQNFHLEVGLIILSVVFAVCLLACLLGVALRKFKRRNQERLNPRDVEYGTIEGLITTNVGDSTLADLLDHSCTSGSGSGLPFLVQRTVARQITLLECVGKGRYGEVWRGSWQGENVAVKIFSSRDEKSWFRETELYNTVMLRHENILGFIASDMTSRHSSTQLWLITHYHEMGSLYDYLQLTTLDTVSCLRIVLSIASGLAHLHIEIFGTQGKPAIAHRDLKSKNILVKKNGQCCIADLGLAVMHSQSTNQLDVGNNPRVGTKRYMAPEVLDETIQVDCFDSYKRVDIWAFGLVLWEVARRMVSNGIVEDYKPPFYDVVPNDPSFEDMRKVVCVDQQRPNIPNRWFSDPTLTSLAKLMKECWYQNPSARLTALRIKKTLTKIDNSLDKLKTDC

[11] = target: STK24 (human) (UniProt Q9Y6E0)
[12] = target: RPS6KB2 (human) (UniProt Q9UBS0)
[13] = target: SLK (human) (UniProt Q9H2G2)
[14] = target: CLK4 (human) (UniProt Q9HAZ1)
[15] = target: TAOK2 (human) (UniProt Q9UL54)
Sequence of TAOK2 (human) (Q9UL54 whole entry, looked up): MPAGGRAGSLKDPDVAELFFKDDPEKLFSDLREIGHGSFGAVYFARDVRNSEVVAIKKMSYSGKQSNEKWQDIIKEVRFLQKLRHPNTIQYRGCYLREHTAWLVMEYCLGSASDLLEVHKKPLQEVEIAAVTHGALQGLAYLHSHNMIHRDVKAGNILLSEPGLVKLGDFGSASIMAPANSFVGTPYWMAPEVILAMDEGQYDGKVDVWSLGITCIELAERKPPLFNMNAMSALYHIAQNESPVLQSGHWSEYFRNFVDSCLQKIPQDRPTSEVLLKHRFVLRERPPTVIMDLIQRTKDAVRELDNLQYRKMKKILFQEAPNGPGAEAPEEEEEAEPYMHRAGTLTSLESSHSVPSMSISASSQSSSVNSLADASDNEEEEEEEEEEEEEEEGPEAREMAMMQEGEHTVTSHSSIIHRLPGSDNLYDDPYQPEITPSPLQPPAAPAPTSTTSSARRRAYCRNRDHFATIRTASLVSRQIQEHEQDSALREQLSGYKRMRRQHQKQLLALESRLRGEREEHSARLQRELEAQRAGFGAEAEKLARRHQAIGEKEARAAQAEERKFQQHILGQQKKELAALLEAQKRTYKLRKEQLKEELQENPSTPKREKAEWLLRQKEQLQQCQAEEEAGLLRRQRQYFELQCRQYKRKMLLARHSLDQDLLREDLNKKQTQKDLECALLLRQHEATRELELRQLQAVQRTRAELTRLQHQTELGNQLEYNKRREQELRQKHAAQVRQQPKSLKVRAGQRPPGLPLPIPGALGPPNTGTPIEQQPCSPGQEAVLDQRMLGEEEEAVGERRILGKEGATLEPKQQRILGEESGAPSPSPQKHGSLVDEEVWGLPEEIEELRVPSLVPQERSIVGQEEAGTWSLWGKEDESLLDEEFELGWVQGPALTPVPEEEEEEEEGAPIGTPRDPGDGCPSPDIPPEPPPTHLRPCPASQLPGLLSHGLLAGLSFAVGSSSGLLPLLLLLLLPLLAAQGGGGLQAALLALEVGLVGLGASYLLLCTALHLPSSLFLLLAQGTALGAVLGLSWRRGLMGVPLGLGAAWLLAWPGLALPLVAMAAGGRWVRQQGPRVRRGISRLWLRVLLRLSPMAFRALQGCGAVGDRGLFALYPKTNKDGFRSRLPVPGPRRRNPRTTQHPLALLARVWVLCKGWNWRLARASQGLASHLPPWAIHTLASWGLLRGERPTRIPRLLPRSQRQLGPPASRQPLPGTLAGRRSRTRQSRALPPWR

[16] = target: MAPK10 (human) (UniProt P53779)
Sequence of MAPK10 (human) (P53779 whole entry, looked up): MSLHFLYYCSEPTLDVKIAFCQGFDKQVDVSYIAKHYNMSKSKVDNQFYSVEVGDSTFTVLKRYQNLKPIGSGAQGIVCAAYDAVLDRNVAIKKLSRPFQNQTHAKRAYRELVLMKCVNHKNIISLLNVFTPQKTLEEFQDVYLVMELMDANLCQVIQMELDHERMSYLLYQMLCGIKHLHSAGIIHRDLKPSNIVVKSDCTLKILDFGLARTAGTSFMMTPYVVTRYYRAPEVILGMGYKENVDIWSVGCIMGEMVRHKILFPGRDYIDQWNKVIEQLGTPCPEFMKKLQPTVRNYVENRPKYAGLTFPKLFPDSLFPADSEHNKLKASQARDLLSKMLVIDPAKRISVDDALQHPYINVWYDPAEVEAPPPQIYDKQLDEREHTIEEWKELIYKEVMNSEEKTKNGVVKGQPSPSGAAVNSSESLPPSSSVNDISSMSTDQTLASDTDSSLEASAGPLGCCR

[17] = target: MST4 (human) (UniProt Q9P289)
[18] = target: PRKD2 (human) (UniProt Q9BZL6)
[19] = target: MARK3 (human) (UniProt P27448)
[20] = target: CDK5 CDK5R1 p25 (human) (UniProt Q00535+Q15078)
[21] = target: BLK (human) (UniProt P51451)
Sequence of BLK (human) (P51451 whole entry, looked up): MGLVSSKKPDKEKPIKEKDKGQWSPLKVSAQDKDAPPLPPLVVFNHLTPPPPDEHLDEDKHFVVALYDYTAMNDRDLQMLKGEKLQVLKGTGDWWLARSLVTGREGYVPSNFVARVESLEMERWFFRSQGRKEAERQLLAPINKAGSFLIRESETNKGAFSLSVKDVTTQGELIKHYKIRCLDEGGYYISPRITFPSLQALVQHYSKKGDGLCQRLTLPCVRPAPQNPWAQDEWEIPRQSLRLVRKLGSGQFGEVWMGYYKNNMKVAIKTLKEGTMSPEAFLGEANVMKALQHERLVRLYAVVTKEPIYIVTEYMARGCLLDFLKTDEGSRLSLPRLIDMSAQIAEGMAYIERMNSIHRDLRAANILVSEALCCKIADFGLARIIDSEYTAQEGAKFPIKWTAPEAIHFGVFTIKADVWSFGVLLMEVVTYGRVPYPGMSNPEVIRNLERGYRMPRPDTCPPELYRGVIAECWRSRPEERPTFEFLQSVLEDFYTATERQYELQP

[22] = target: CSNK1D (human) (UniProt P48730)
[23] = target: TGFBR2 (human) (UniProt P37173)
[24] = target: FES (human) (UniProt P07332)
[25] = target: SRC (human) (UniProt P12931)
[26] = target: SIK2 (human) (UniProt Q9H0K1)
[27] = target: PLK2 (human) (UniProt Q9NYY3)
[28] = target: MAPK3 (human) (UniProt P27361)
[29] = target: CSF1R (human) (UniProt P07333)
Sequence of CSF1R (human) (P07333 whole entry, looked up): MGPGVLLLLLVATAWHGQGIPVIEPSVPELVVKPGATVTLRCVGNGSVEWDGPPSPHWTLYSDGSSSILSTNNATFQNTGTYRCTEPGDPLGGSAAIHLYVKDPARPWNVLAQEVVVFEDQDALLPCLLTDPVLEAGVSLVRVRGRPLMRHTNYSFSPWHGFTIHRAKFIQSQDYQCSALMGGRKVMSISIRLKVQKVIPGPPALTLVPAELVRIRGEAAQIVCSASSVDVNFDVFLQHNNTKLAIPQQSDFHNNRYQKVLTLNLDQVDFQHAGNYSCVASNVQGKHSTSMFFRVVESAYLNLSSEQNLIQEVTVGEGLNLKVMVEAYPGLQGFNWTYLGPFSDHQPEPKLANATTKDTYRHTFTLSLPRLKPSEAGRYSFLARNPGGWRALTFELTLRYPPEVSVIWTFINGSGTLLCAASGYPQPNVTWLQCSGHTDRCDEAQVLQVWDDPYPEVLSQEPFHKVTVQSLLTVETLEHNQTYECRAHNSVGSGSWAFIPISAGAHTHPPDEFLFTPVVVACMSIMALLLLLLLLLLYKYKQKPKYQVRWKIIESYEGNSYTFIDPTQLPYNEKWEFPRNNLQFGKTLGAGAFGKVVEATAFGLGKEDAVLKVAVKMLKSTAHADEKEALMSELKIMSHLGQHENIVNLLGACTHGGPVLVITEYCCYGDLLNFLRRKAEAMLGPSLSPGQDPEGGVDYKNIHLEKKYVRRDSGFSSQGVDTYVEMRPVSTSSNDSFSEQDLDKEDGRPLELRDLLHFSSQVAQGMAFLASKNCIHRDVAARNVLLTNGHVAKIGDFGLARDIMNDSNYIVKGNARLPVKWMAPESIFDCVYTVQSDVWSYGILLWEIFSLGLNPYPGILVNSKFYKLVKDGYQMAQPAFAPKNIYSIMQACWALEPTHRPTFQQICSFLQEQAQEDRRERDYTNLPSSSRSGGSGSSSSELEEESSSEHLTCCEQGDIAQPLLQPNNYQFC

[30] = target: KIT (human) (UniProt P10721)
[31] = target: ROCK2 (human) (UniProt O75116)
[32] = target: RAF1 (human) (UniProt P04049)
[33] = target: EPHB4 (human) (UniProt P54760)
[34] = target: LTK (human) (UniProt P29376)
[35] = target: IRAK4 (human) (UniProt Q9NWZ3)
[36] = target: PAK1 (human) (UniProt Q13153)
Sequence of PAK1 (human) (Q13153 whole entry, looked up): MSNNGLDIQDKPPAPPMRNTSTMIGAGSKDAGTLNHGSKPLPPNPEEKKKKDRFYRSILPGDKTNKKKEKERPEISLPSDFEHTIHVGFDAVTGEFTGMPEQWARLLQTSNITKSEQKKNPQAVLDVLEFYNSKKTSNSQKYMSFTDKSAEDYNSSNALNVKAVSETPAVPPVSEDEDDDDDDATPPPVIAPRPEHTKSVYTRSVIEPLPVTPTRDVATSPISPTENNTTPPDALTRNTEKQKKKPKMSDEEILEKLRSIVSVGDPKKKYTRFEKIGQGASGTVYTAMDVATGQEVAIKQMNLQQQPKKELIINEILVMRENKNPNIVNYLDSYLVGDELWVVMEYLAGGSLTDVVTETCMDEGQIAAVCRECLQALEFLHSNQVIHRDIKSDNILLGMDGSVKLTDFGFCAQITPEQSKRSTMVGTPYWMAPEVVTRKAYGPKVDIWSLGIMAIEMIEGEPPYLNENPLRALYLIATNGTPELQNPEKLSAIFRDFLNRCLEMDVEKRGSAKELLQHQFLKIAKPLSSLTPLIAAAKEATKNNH

[37] = target: MAP3K7 TAB1 (human) (UniProt O43318+Q15750)
[38] = target: MAPK1 (human) (UniProt P28482)
[39] = target: RPS6KA1 KD1 KD2 (human) (UniProt Q15418)
[40] = target: RPS6KA3 KD1 KD2 (human) (UniProt P51812)
[41] = target: ULK2 (human) (UniProt Q8IYT8)
[42] = target: FGFR1 (human) (UniProt P11362)

Sequence of CAMK4 (human) (Q16566 whole entry, looked up): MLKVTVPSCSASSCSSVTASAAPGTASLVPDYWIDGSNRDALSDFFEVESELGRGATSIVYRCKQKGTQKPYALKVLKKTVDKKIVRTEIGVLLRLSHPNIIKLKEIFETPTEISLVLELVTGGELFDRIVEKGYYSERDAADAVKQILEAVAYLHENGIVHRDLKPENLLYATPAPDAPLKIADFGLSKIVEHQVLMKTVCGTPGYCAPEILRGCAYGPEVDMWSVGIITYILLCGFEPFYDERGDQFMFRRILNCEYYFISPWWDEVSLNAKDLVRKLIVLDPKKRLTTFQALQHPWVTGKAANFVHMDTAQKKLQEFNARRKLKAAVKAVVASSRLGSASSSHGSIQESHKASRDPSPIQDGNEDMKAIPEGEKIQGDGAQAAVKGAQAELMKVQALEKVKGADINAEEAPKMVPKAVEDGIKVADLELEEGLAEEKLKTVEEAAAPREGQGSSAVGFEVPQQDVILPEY

## CCN1/C(=C/C(C)=O)Sc2ccc(OC)cc21
[1]
  residual activity: 96.6%
[2]
  residual activity: 94.6%
[3]
  residual activity: 98%
[4]
  residual activity: 90.3%
[5]
  residual activity: 62.5%
[6]
  residual activity: 99.9%
[7]
  residual activity: 102%
[8]
  residual activity: 97.1%
[9]
  residual activity: 95.2%
[10]
  residual activity: 88.1%
[11]
  residual activity: 82.2%
[12]
  residual activity: 107%
[13]
  residual activity: 86.8%
[14]
  residual activity: 18.5%
[15]
  residual activity: 101%
[16]
  residual activity: 102%
[17]
  residual activity: 87.9%
[18]
  residual activity: 69.4%
[19]
  residual activity: 100%
[20]
  residual activity: 87.9%
[21]
  residual activity: 95.4%
[22]
  residual activity: 54.2%
[23]
  residual activity: 78.5%
[24]
  residual activity: 101%
[25]
  residual activity: 94.4%
[26]
  residual activity: 116%
[27]
  residual activity: 100%
[28]
  residual activity: 105%
[29]
  residual activity: 93.8%
[30]
  residual activity: 67.8%
[31]
  residual activity: 90.7%
[32]
  residual activity: 95.9%
[33]
  residual activity: 92.4%
[34]
  residual activity: 87.1%
[35]
  residual activity: 123%
[36]
  residual activity: 92.9%
[37]
  residual activity: 99.9%
[38]
  residual activity: 97.1%
[39]
  residual activity: 94%
[40]
  residual activity: 102%

## Nc1nc(Nc2ccc(S(N)(=O)=O)cc2)nn1C(=O)c1c(F)cccc1F
[1]
  residual activity: 89%
[2]
  residual activity: 102%
[3]
  residual activity: 99.9%
[4]
  residual activity: 98.5%
[5]
  residual activity: 55.6%
[6]
  residual activity: 96.8%
[7]
  residual activity: 48%
[8]
  residual activity: 79.7%
[9]
  residual activity: 107%
[10]
  residual activity: 104%
[11]
  residual activity: 76.9%
[12]
  residual activity: 104%
[13]
  residual activity: 19.1%
[14]
  residual activity: 41.6%
[15]
  residual activity: 8.92%
[16]
  residual activity: 100%
[17]
  residual activity: 64.2%
[18]
  residual activity: 86%
[19]
  residual activity: 67.6%
[20]
  residual activity: 2.54%
[21]
  residual activity: 90.1%
[22]
  residual activity: 94.5%
[23]
  residual activity: 98.5%
[25]
  residual activity: 76.3%
[41]
  residual activity: 102%
[26]
  residual activity: 84.1%
[27]
  residual activity: 94.2%
[28]
  residual activity: 108%
[29]
  residual activity: 49.2%
[30]
  residual activity: 81.7%
[31]
  residual activity: 18.6%
[32]
  residual activity: 95.7%
[33]
  residual activity: 81%
[34]
  residual activity: 85.8%
[35]
  residual activity: 151%
[36]
  residual activity: 89.5%
[37]
  residual activity: 77.4%
[38]
  residual activity: 98.4%
[39]
  residual activity: 42.1%
[40]
  residual activity: 38.6%

## O=C(NC(NC(=S)Nc1ccc(F)c([N+](=O)[O-])c1)C(Cl)(Cl)Cl)C(c1ccccc1)c1ccccc1 (stereo unspecified)
[1]
  residual activity: 106%
[2]
  residual activity: 109%
[3]
  residual activity: 98%
[4]
  residual activity: 104%
[5]
  residual activity: 98.5%
[6]
  residual activity: 98.5%
[7]
  residual activity: 104%
[8]
  residual activity: 97.7%
[9]
  residual activity: 91.6%
[10]
  residual activity: 98.8%
[11]
  residual activity: 92.8%
[12]
  residual activity: 99.3%
[13]
  residual activity: 95.2%
[14]
  residual activity: 105%
[15]
  residual activity: 103%
[16]
  residual activity: 96.2%
[17]
  residual activity: 89.3%
[18]
  residual activity: 107%
[19]
  residual activity: 104%
[20]
  residual activity: 96.8%
[21]
  residual activity: 110%
[22]
  residual activity: 105%
[23]
  residual activity: 91.6%
[24]
  residual activity: 104%
[25]
  residual activity: 96.1%
[26]
  residual activity: 112%
[27]
  residual activity: 92.9%
[28]
  residual activity: 120%
[29]
  residual activity: 96.2%
[30]
  residual activity: 97.2%
[31]
  residual activity: 109%
[32]
  residual activity: 95.3%
[33]
  residual activity: 101%
[34]
  residual activity: 91.5%
[35]
  residual activity: 191%
[36]
  residual activity: 86%
[42]
  residual activity: 97.7%
[37]
  residual activity: 89.7%
[38]
  residual activity: 97.6%
[39]
  residual activity: 105%
[40]
  residual activity: 96.2%

## CC(C)(C)c1nc2c3ccc(F)cc3c3c(=O)[nH]ccc3c2[nH]1
[1]
  residual activity: 79.2%
[2]
  residual activity: 57.3%
[3]
  residual activity: 93.2%
[4]
  residual activity: 87.1%
[5]
  residual activity: 10.8%
[6]
  residual activity: 81.8%
[7]
  residual activity: 44.5%
[8]
  residual activity: 99.1%
[9]
  residual activity: 89.8%
[10]
  residual activity: 135%
[11]
  residual activity: 82.4%
[12]
  residual activity: 102%
[13]
  residual activity: 91.4%
[14]
  residual activity: 70.7%
[16]
  residual activity: 107%
[17]
  residual activity: 70.9%
[18]
  residual activity: 6.13%
[19]
  residual activity: 55.9%
[21]
  residual activity: 93.5%
[22]
  residual activity: 89.1%
[23]
  residual activity: 58.2%
[24]
  residual activity: 78%
[25]
  residual activity: 93.4%
[41]
  residual activity: 41.5%
[26]
  residual activity: 60.2%
[27]
  residual activity: 92.6%
[28]
  residual activity: 85.7%
[29]
  residual activity: 93%
[30]
  residual activity: 96.1%
[31]
  residual activity: 70.7%
[32]
  residual activity: 134%
[33]
  residual activity: 88.2%
[34]
  residual activity: 20.6%
[35]
  residual activity: 96.3%
[36]
  residual activity: 82.1%
[42]
  residual activity: 75.8%
[37]
  residual activity: 46.6%
[38]
  residual activity: 96.1%
[39]
  residual activity: 38.6%

## O=C1Cc2c([nH]c3ccc([N+](=O)[O-])cc23)-c2ccccc2N1
[1]
  residual activity: 74.5%
[2]
  residual activity: 101%
[3]
  residual activity: 109%
[4]
  residual activity: 103%
[5]
  residual activity: 88.2%
[6]
  residual activity: 89.2%
[7]
  residual activity: 55.4%
[8]
  residual activity: 96.7%
[9]
  residual activity: 101%
[10]
  residual activity: 79.7%
[11]
  residual activity: 66.4%
[12]
  residual activity: 96.5%
[13]
  residual activity: 96.2%
[14]
  residual activity: 86.4%
[15]
  residual activity: 88.9%
[16]
  residual activity: 97.2%
[17]
  residual activity: 78.6%
[18]
  residual activity: 101%
[19]
  residual activity: 67.7%
[20]
  residual activity: 10.5%
[21]
  residual activity: 94.2%
[23]
  residual activity: 19.4%
[24]
  residual activity: 46.3%
[25]
  residual activity: 39.7%
[41]
  residual activity: 72.7%
[26]
  residual activity: 56.5%
[27]
  residual activity: 106%
[28]
  residual activity: 93.5%
[29]
  residual activity: 51%
[30]
  residual activity: 83.7%
[31]
  residual activity: 82%
[32]
  residual activity: 114%
[33]
  residual activity: 87.2%
[34]
  residual activity: 93.9%
[35]
  residual activity: 167%
[36]
  residual activity: 36.7%
[42]
  residual activity: 88.6%
[37]
  residual activity: 67.5%
[38]
  residual activity: 106%
[39]
  residual activity: 89.7%
[40]
  residual activity: 70.6%
